Reference: paper PMC10568017, “A quest for the stereo-electronic requirements for selective agonism for the neurotrophin receptors TrkA and TrkB in 17-spirocyclic-dehydroepiandrosterone derivatives” (Frontiers in Molecular Neuroscience, 2023)

B1: brain-derived neurotrophic factor (protein, UniProt P23560 19-247, looked up)
Neurotrophic factor BDNF …: APMKEANIRGQGGLAYPGVRTHGTLESVNGPKAGSRGLTSLADTFEHVIEELLDEDQKVRPNEENNKDADLYTSRVMLSSQVPLEPPLLFLLEEYKNYLDAANMSMRVRRHSDPARRGELSVCDSISEWVTAADKKTAVDMSGGTVTVLEKVPVSKGQLKQYFYETKCNPMGYTKEGCRGIDKRHWNSQCRTTQSYVRALTMDSKKRIGWRFIRIDTSCVCTLTIKRGR
notes: native neurotrophin ligand of the TrkB receptor, positive control at 500 ng/mL

Columns and labels:
[1] = target: T1, TrkB (Mus musculus, UniProt P15209); test: TrkB phosphorylation assay in primary astrocytes (Western blot); type: cell-based; settings: compound 1 μM, 20 min, after 6 h serum starvation, BDNF 500 ng/mL as control
T1 construct: primary cortical astrocytes from 2-day-old mice (as a natively TrkB-expressing neuronal population); endogenous in cells; host or cells: primary cortical astrocytes from C57B/6 mouse pups (P2)
Protocol: (§1) We tested compounds on three cellular systems, primary cortical astrocytes from 2-day-old mice (as a natively TrkB-expressing neuronal population), and NIH-3T3 fibroblasts stable transfected with TrkB and NIH-3T3 naïve cells. Cells were grown with high-glucose DMEM medium supplemented with 10% fetal bovine serum (FBS), 100 μg/mL streptomycin, and 100 units/mL penicillin at 37°C in a humidified 5% CO2 atmosphere. Phosphorylation results presented here are in primary astrocytes, and cell toxicity assay results are in NIH-3T3 stable transfected cells with TrkB.
Cells were plated in 12 well plates, at a density of 100,000 cells per well, with 6 h of serum deprivation carried out on the following day. To assess the effect of compounds on TrkB phosphorylation, 20-min treatments were applied, using either BDNF at 500 ng/mL (Peprotech 450-02) (positive control) or compounds at 1 μM.
Cell lysis for 10 min was carried out on ice using the Pierce IP Lysis Buffer by Thermo Scientific and a phospho-protease inhibitor cocktail by Millipore. After adding loading buffer (5 × Laemni), 25 μg from each protein sample were incubated for 5 min at 95°C and subjected to SDS-PAGE. Proteins were transferred to a nitrocellulose membrane at 350 mA for 2 h. Membrane blocking was performed using 5% bovine serum albumin (BSA) at room temperature for 1 h, before adding the primary antibodies to the blocking solution at 4°C overnight. HRP-conjugated secondary antibodies were used for the detection of chemiluminescence with ECL solution. Primary antibodies: Phospho-TrkB (Tyr816) Millipore # ABN1381, and Anti-TrkB Abcam #ab33655.
Mixed glial cultures were isolated from the cortex of C57B/6 pups at post-natal day 2 (P2). Cells were plated in a medium containing high-glucose DMEM, 200 U/mL penicillin, 200 μg/mL streptomycin, and 10% fetal bovine serum (FBS). When cells reach 100% confluency (7–8 days), the anti-mitotic agent Ara-C was added in the media at a final concentration of 10 μM, for 3 to 4 days to target the highly proliferative microglial cells. Ara-C was removed, and primary astrocytes (97% purity) were cultured at 5% CO2 and 37°C.
Cells were plated at 70–80% confluency. The next day, they were deprived of serum for 6 h and subsequently treated with 500 ng/mL BDNF or 1 μM of compounds for 20 min. Cells were then lysed in Pierce™ IP Lysis Buffer (87788, Thermo Fischer Scientific, Rockford, USA), containing proteases (539138, Calbiochem, Darmstadt, Germany), and phosphatase inhibitors (524629, Calbiochem, Darmstadt, Germany). Lysates were then suspended in an SDS loading buffer and subjected to Western blot against phosphorylated TrkB (1:1,000, ABN1381, Sigma-Aldrich, St. Louis, MO, USA) and total TrkB (1:1,000, 07-225-I, Sigma-Aldrich, St. Louis, MO, USA).

[2] = tested on: NIH-3T3 TrkB-expressing cell line; test: CellTox Green cytotoxicity assay in NIH-3T3 cells stable transfected with TrkB under serum deprivation; type: cell-based; settings: compound 1 μM, 24 h, after 24 h serum starvation; BDNF 500 ng/mL as control
Protocol: as §1
NIH-3T3 stable transfected cells with TrkB were plated in 96-well plates at a density of 10,000 cells/well, before carrying out serum starvation for 24 h. Cells were then treated for 24 h with either BDNF at 500 ng/mL (control) or the compounds at 1 μM.
(§2) For the cell toxicity assay, we used CellTox™ Green Dye (2,000 × , Promega) for the visualization of dead cells and Hoechst 33,342 solution (10,000 × ) for total cells. A ZEISS Axio Vert.A1 microscope was used for image capture, and the ImageJ software (https://imagej.nih.gov/ij/) was used for analysis. The number of CellTox positive cells was normalized against the total number of cells observed in each image.
The NIH-3T3 TrkB cell line, which is stable and transfected to specifically express the TrkB receptor, was used for the screening of the new compounds for their ability to protect cells from serum deprivation-induced apoptosis through the activation of the TrkB receptor. Cell death was induced by serum deprivation for 24 h and then BDNF (500 ng/mL), the native neurotrophin ligand of the TrkB receptor, or compounds ENT-A007, ENT-A009, ENTA025, ENT-A026, ENT-A033, ENT-A034, ENT-A035, ENT-A036, ENT-A037, ENT-A046, ENT-A047, ENT-A055, and ENT-A056 (1 μM) were added to the media for 24 h.

[3] = target: T2, CYP2C9 (Homo sapiens, UniProt P11712); test: Isozyme-specific CYP450 inhibition, CYP2C9; type: in vitro ADME; settings: 1 μM, 60 min, recombinant human CYP450 (Baculosomes)
T2 construct: purchased Thermo Fisher Scientific; host or cells: Baculosomes
Protocol: Human cytochrome P450 (CYP450) isoenzymes were expressed in Baculosomes®, purchased from Thermo Fisher Scientific (Waltham, MA, USA). All reagents were handled and prepared according to the manufacturer's protocol. Test compounds were assessed at 1 μM for their effects on CYP1A2, CYP2A6, CYP2C9, CYP2C19, CYP2D6, and CYP3A4. Approximately 1 μM was selected based on our ADMET standard operating procedures and protocols also published previously (Rogdakis et al., [2022]; Yilmaz et al., [2022]). CYP450-enzymatic activity was determined based on the kinetic model for each CYP450 isoform (Cohen et al., [2003]; Veith et al., [2009]). Reactions took place in triplicates at 20°C. For this, NADP^+ (10 mM in 100 mM potassium phosphate, pH 8.0) was converted into NADPH by the regeneration system present (glucose-6-phosphate at 333 mM and glucose-6-phosphate-dehydrogenase at 30 U/mL in 100 mM potassium phosphate, pH 8.0). Following the addition of the fluorescent substrate, signal monitoring over time took place immediately (<2 min) at suitable excitation and emission wavelengths (Agilent BioTek Lionheart FX). CYP450 inhibition (%) was determined based on the reaction rates (fluorescence intensity changes per unit time). In total, n = 60 measurements […] were acquired (t = 60 min).
% Inhibition=(1-X/A)×100%
X is the rate observed in the presence of the test compound.
A is the rate observed in the presence of the negative (solvent, DMSO) control.

[4] = tested on: PC12 cells; test: CellTox assay, survival of PC12 cells under serum deprivation; type: cell-based; settings: compound 500 nM, 24 h, after 4 h serum starvation; NGF 100 ng/mL as control (Figure 9)
Protocol: PC12 cells were obtained from LGC Promochem and cultured under specified conditions. Cells were grown in DMEM medium (Thermo Fischer Scientific, cat# 10566016) containing 10% horse serum (Thermo Fischer Scientific, cat# 16050122), 5% fetal bovine serum (Thermo Fischer Scientific, cat# 10270106), 100 units/mL penicillin, and 0.1 mg/mL streptomycin (Thermo Fischer Scientific, cat# 15140122) at 5% CO2 and 37°C. Cells were used between passages 5 and 20.
CellTox assay (G8742, Promega, Leiden, Belgium) was used to assess the survival of PC12 cells under serum deprivation conditions. PC12 cells were plated in 96-well plates, starved from serum for 4 h, and subsequently treated with NGF (100 ng/mL) or compound (500 nM) for 24 h. CellTox assay reagents and Hoescht (1:10,000, H3570, Invitrogen, Massachusetts, USA) were then added to each well for 30 min, and then, cells were imaged with a Zeiss AXIO Vert A1 fluorescent microscope. CellTox positive cells were normalized to the total number of cells for each image.
Initially, we tested compounds ENT-A002, ENT-A007, ENT-A009, ENTA025, ENT-A026, ENT-A033, ENT-A034, ENT-A035, ENT-A036, ENT-A037, ENT-A046, ENT-A047, ENT-A055, and ENT-A056 for their ability to protect PC12 cells from serum deprivation-induced cell death as well as for their ability to activate TrkA downstream pro-survival signaling kinases Akt and Erk1/2 (Figures 9A–C). We opted to employ PC12 cells, which express receptors TrkA and p75 and have been routinely used for investigating NGF-TrkA signaling. PC12 cells were subjected to a period of nutrient deprivation (without fetal bovine serum and horse serum in their culture medium) for 4 h. Following this, NGF (100 ng/mL) or one of the compounds (500 nM or 1 μM) was administered and allowed to interact with the cells for 24 h. Following that, CellTox and Hoescht dyes were added and cells were imaged to assess cell death. Control cases involved cells cultured in full medium (serum), cells under starvation conditions (serum-free), and cells under starvation conditions treated with DMSO (SF+DMSO).

[5] = Metabolic stability in pooled human liver microsomes; type: in vitro ADME; settings: 1 μM; for residual of time zero: pooled human liver microsomes 0.5 mg/mL, t = 60 min, NADPH; for parent structure loss (depletion) class: pooled human liver microsomes, 60 min
Protocol: For metabolic stability assessment, pooled human liver microsomes were employed at 0.5 mg/mL. Incubation conditions were optimized to ensure linear metabolite formation with respect to protein concentration and reaction time. All test compounds were assessed at 1 μM based on our ADMET standard operating procedures and protocols, also published previously (1 μM was selected based on our ADMET standard operating procedures and protocols also published previously) (Rogdakis et al., [2022]; Yilmaz et al., [2022]). Approximately 1 mM of NADPH served as a cofactor. Reactions took place in triplicates at 37°C. Negative and positive controls (low vs. rapid clearance) were included for low vs. rapid clearance. After 60 min, reactions were terminated.
Parent structure loss is classified as very slow (<5%), slow (5–19%), moderate (20–50%), fast (50–80%), or very fast (>80%). Such categories have been defined according to set criteria, namely, high metabolism (t1/2 value of <30 min), moderate metabolism (30 min <t1/2 value of <60 min), and low metabolism (t1/2 value of >60 min) (EMA, [2012], [2013]; FDA, [2020]).

[6] = tested on: NIH3T3 naive cells; test: CellTox assay in NIH3T3 naive cells under serum deprivation; type: cell-based; settings: compound 1 μM or BDNF 500 ng/mL, 24 h, after 18 h nutrient deprivation
Protocol: as §1, §2
These cells were treated with the compounds, or BDNF, for 24 h under starvation conditions. Control conditions included cells cultured with serum, serum-free conditions, and serum-free conditions supplemented with DMSO. The cells were subjected to a period of 18 h of nutrient deprivation before the treatments. […] Therefore, we infer that the involvement of the TrkB receptor is indeed essential for the cell-protective effects of ENT-A076, ENT-A087, and ENT-A088 (Figures 14A, B).

T1 sequence (P15209 32-821): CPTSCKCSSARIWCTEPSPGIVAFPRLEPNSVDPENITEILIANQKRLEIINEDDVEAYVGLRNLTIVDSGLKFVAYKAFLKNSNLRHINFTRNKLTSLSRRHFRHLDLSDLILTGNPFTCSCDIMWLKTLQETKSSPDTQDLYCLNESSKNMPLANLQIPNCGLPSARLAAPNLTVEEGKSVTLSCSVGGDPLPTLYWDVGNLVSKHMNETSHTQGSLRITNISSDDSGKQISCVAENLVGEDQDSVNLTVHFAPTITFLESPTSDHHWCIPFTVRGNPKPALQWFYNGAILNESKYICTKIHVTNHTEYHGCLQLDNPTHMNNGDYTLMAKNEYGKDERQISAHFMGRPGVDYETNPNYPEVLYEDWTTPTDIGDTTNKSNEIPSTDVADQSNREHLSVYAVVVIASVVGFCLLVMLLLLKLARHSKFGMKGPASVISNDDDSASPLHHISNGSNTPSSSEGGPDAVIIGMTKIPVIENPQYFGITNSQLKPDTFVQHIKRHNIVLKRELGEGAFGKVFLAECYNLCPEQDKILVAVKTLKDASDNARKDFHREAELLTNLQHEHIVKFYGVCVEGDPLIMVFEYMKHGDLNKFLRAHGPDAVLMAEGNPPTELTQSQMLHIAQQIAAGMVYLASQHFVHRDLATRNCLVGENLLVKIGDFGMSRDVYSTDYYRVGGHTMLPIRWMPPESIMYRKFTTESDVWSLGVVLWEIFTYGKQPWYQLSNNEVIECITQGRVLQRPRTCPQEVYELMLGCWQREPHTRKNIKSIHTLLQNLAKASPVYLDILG
T2 sequence (P11712 whole entry): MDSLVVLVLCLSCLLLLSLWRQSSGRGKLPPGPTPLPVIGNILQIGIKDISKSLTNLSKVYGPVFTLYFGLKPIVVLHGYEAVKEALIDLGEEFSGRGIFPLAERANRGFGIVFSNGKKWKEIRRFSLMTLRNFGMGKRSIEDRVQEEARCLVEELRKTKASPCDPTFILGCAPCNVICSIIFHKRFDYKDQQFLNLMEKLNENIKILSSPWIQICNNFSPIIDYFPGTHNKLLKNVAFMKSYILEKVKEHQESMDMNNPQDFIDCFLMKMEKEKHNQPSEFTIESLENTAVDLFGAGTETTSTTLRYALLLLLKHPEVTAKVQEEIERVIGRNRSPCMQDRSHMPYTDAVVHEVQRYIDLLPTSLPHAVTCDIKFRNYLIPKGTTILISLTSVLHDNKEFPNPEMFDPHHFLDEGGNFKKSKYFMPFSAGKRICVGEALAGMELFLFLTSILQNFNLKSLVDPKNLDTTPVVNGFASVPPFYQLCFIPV

Molecule | phosphorylation levels of the TrkB receptor [1] | protection of NIH-3T3-TrkB cells from serum deprivation-induced cell death (CellTox) [2] | inhibition for CYP2C9 [3] | protection of PC12 cells from serum deprivation-induced cell death (CellTox) [4] | residual of time zero [5] [%] | parent structure loss (depletion) class [5] | rescue of NIH3T3 naive cells (no neurotrophin receptors) from serum deprivation-induced cell death (CellTox) [6]
CCOC(=O)C=CC1=CCC2(CCC3C4CC=C5CC(O)CCC5(C)C4CCC32C)OC1 [ENT-A007, Ethyl (E)-(3S,17R)-3-hydroxy-dihydrospiro[5-androstene-17,2′-pyran]-5′-yl-acrylate] | only ENT-A009 and ENT-A055 successfully increased phosphorylation levels of the TrkB receptor | significantly reduce cell death levels compared to the serum-free control, comparable to the BDNF action | moderate-to-strong inhibition | – | – | – | –
CN(C)Cc1cn(CC2=CC[C@@]3(CC[C@H]4[C@@H]5CC=C6C[C@@H](O)CC[C@]6(C)[C@H]5CC[C@@]43C)OC2)nn1 [ENT-A046, (3S,17R)-5′-[(4-((dimethylamino)methyl)-1H-1,2,3-triazol-1-yl)methyl]-3′,6′-dihydrospiro[5-androstene-17,2′-pyran]-3-ol] | only ENT-A009 and ENT-A055 successfully increased phosphorylation levels of the TrkB receptor | significantly reduce cell death levels compared to the serum-free control, comparable to the BDNF action | – | without showing any antiapoptotic activity in PC12 cells | – | – | –
C[C@]12CC[C@H](O)CC1=CC[C@@H]1[C@@H]2CC[C@@]2(C)[C@H]1CCC21CC(=O)C1 [ENT-A076, (3S)-3-hydroxy-spiro[5-androsten-17-cyclobutan]-3′-one] | – | demonstrated the ability to promote cell survival during serum starvation as well as BDNF | – | – | 95 | slow (slow (5–19%)) | neither the compounds nor BDNF were able to rescue the cells from cell death
COC(=O)C=C1CC2(CC[C@H]3[C@@H]4CC=C5C[C@@H](O)CC[C@]5(C)[C@H]4CC[C@@]32C)C1 (stereo partly drawn) [ENT-A087] | – | demonstrated the ability to promote cell survival during serum starvation as well as BDNF | – | – | > 95 | very slow (very slow (<5%)) | neither the compounds nor BDNF were able to rescue the cells from cell death
B1 | – | – | – | – | – | – | neither the compounds nor BDNF were able to rescue the cells from cell death
